Key:
[1] = molecular target: T1, TRH receptor binding sites in pituitary (Rattus norvegicus, UniProt Q01717); assay: Receptor binding assay, [3H][3-Me-His2]-TRH competition, anterior pituitary homogenate; parameters: species or system rat (Sprague-Dawley); conditions: rat anterior pituitary membranes; [3H][3-Me-His2]-TRH 3 to 5 nM; 4-6 °C, 2.5 hours; mean ± S.E.M.
T1 construct: from tissue; host or cells: rat anterior pituitary membrane pellet (homogenate, 39000 g)
T1 sequence (Q01717 1-412): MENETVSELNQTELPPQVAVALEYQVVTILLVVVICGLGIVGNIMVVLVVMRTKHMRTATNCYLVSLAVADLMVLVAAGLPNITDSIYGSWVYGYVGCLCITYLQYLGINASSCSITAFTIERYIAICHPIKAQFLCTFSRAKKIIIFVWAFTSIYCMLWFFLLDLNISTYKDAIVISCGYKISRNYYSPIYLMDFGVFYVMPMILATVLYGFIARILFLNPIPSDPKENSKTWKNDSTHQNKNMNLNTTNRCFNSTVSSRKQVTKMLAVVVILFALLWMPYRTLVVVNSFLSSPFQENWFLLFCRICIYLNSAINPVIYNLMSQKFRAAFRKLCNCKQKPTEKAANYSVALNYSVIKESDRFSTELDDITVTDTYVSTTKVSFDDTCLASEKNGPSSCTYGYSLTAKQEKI
Description: (§1) Adult, male Sprague-Dawley rats were obtained from Taconic Farms (Germantown, N.Y.) and housed at controlled temperature (22° C.) and light cycle (12/12 h) with free access to food and water. On the experimental day, six to eight animals were rapidly decapitated and their brains quickly removed and placed on a cold plate. Anterior pituitary and cortex tissue samples were obtained and processed immediately for receptor-binding experiments.
(§2) All steps of the tissue preparation and binding assays were done on ice. After weighing, pooled tissue samples were homogenized in 25 ml of ice-cold sodium phosphate buffer (0.1M, pH 7.4-7.5), using a Brinkmann Polytron homogenizer (setting 7, 15-20 s). The homogenates were then centrifuged in a refrigerated Sorvall RC5B centrifuge at 39000 g for 30 minutes. The supernatants were discharged and the pellets were resuspended to a concentration of 50 (pituitary) or 100 mg wet weight/ml (ww/ml, cortex) in ice-cold sodium phosphate buffer containing 177 μM Bacitracin.
(§3) Competition experiments were performed by incubating mixtures of tissue resuspensions, [3H][3-Me-His2]-TRH (87 Ci/mmol, Amersham) in 3 to 5 nM final concentration and increasing amounts of analog in a total volume of 100 μl/vial at 4° to 6° C. for 2.5 hours. In order to limit loss of peptides by adherence to glass, 0.05% bovine serum albumin was included in the assays. Nonspecific binding was determined in the presence of 10 μM TRH. The incubation period was terminated by vacuum filtration of the incubation mixture through Whatman GF/B glass filters, using a 48-well cell harvester (Brandel Inc., Gaithersburg, Md.), followed by four rinses with 4 ml each of ice-cold 0.9% NaCl solution. Filters were then placed in scintillation vials and kept overnight in 5 ml of watermiscible scintillation fluid (Beckman Ready-SolvTM HP) each. Bound radioactivity was measured after thorough shaking of the vials on the following day in an LKB 1218 Rackbeta liquid scintillation counter with automatic correction for tritium quenching. Specific binding was calculated as total binding minus nonspecific binding. Inhibition constants, Ki, were determined according to Cheng and Prusoff (1973) using the radioligand-binding analysis software LIGAND (Elsevier-Biosoft; Munson and Rodbard, 1980). Unless otherwise stated, data in tables and figures represent mean values±S.E.M. (standard error of the mean of separate experiments done in duplicate).

TSH release [2] = conditions: relative to TRH; cited from earlier work
[3] = molecular target: TRH receptor binding sites in cortex; assay: Receptor binding assay, [3H][3-Me-His2]-TRH competition, cortex homogenate; parameters: species or system rat (Sprague-Dawley); conditions: rat cortex membranes; [3H][3-Me-His2]-TRH 3 to 5 nM; 4-6 °C, 2.5 hours; mean ± S.E.M.
Description: as §1, §2
as §3, with “The incubation period was terminated by vacuum filtration of the incubation mixture through Whatman GF/B glass filters, using a 48-well cell harvester (Brandel Inc., Gaithersburg, Md.), followed by four rinses with 4 ml each of ice-cold 0.9% NaCl solution.” left out, “Unless otherwise stated, data in tables and figures represent mean values±S.E.M. (standard error of the mean of separate experiments done in duplicate).” left out

TSH release [4] = conditions: compared with natural TRH; reported by Kruszynski; cited from earlier work
TRH receptor = conditions: compared with natural TRH; reported by Kruszynski; cited from earlier work

Ki [1] [nM]	Ki [3] [nM]	Compound	potency in stimulating TSH release compared with TRH (TSH release [2])	TSH releasing activity (TSH release [4])	TRH receptor binding affinity (TRH receptor)
31.9 ± 2.9		NC(=O)[C@@H]1CCCN1C(=O)[C@H](Cc1c[nH]cn1)NC(=O)[C@@H]1CCC(=S)N1 [Example 1, L-thiopyroglutamyl-L-histidyl-L-oroline amide]			
85.4 ± 17.8	86.1 ± 6.3	NC(=S)[C@@H]1CCCN1C(=O)[C@H](Cc1c[nH]cn1)NC(=O)[C@@H]1CCC(=S)N1 [Example 2, L-thiopyroglutamyl-L-histidyl-L-proline thioamide]	more potent than TRH		
8 ± 0.2	93.1 ± 16.5	NC(=S)[C@@H]1CCCN1C(=O)[C@H](Cc1c[nH]cn1)NC(=O)[C@@H]1CCC(=O)N1 [Example 3, L-pyroglutamyl-L-histidyl-L-proline thioamide]		matching that of natural TRH	matching that of natural TRH
24.1 ± 14.2	26.1 ± 4.5	NC(=O)[C@@H]1CCCN1C(=O)[C@H](Cc1c[nH]cn1)NC(=O)[C@@H]1CCC(=O)N1 [TRH, L-pyroglutamyl-L-histidyl-L-proline-amide, reference compound]			

Source: US5244884A, “Thionated analogues of thyrotropin releasing hormone” (The United States of America as represented by the …, priority 1992, dated 1993)
